Data: patent US9040701B2, “Apaf-1 inhibitor compounds” (LABORATORIOS SALVAT, S.A., priority 2009, dated 2015)

target: T1, Recombinant Apaf-1 produced in insect cells (rApaf-1) (Homo sapiens, UniProt O14727); experiment: In vitro apoptosome formation inhibition assay; assay type: biochemical; details: compound at 10 μM; rApaf-1 40 nM, dATP/Mg 100 μM, horse cytochrome c 0.1 μM, rprocaspase-9 0.1 μM; caspase-9 substrate Ac-LEDH-afc, afc release at 37° C.
T1 construct: made in house; host or cells: insect cells (Apaf-1); E. coli (procaspase-9); cytochrome c purchased from Sigma
T1 sequence (O14727 1-1248): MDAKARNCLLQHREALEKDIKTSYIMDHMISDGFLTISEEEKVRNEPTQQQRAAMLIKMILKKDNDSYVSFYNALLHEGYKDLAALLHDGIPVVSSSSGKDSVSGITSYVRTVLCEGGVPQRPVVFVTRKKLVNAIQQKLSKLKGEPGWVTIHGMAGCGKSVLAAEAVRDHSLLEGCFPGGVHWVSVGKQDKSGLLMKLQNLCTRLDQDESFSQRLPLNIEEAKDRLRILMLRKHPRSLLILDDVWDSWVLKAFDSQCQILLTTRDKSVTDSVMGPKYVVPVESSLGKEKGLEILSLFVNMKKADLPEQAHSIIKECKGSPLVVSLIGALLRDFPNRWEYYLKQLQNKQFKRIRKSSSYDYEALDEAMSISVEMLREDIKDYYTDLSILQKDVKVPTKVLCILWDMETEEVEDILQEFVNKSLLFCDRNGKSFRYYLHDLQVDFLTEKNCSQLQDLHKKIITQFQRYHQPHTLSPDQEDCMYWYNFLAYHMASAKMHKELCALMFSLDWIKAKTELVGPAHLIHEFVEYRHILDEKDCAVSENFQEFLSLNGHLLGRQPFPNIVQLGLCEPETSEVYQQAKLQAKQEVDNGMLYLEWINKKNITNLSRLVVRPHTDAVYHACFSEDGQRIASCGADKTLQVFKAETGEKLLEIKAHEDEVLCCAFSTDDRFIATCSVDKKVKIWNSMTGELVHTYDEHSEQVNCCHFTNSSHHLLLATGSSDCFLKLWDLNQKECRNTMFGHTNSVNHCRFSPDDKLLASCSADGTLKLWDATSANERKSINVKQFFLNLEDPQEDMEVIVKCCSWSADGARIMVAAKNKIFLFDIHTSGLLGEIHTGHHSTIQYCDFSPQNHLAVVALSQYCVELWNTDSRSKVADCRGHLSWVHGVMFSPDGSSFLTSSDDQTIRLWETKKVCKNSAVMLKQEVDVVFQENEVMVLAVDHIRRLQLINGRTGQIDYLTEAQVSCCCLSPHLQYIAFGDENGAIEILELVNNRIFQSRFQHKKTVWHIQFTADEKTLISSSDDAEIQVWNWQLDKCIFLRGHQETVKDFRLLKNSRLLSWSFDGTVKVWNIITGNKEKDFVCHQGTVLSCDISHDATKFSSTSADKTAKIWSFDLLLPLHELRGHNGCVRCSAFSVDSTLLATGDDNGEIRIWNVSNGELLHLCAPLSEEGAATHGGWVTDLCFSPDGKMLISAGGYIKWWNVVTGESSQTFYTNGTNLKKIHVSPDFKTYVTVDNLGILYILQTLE
Procedure: Recombinant Apaf-1 produced in insect cells (rApaf-1) was incubated in the presence (at a concentration of 10 μM) or absence (as control) of the compounds to be evaluated in the assay buffer (20 mM Hepes-KOH pH 7.5, 10 mM KCl, 1.5 mM MgCl2, 1 mM EDTA, 1 mM EGTA, 1 mM DTT, 0.1 mM PMSF) for 15 minutes at 30° C. The final rApaf-1 concentration was 40 nM. dATP/Mg (Sigma) and purified horse cytochrome c (Sigma) were then added achieving final concentrations of 100 μM and 0.1 μM, respectively. It was incubated for 60 minutes at 30° C. and recombinant procaspase-9 produced in E. coli (rprocaspase-9, final concentration 0.1 μM) was then added and it was incubated for 10 minutes at 30° C. before adding the caspase-9 fluorogenic substrate Ac-LEDH-afc (final concentration 50 μM). The total assay volume was 200 μL. The caspase activity was continuously monitored by means of the afc release at 37° C. in a Wallac 1420 Workstation (λexc=390 nm, λem=510 nm).
The activity values of some compounds described in the examples are indicated in the following table expressed as the percentage of Apaf-1 inhibition.

Going from `COC(=O)CN(CCc1ccc(Cl)cc1Cl)C(=O)CC1C(=O)N(CCc2ccc(Cl)cc2Cl)CC(=O)N1CCc1c[nH]c2ccccc12` (stereo not shown) [Ic.3.2, Methyl 2-(2-(1-(2-(1H-indol-3-yl)ethyl)-4-(2,4-dichlorophenethyl)-3,6-dioxopiperazin-2-yl)-N-(2,4-dichlorophenethyl)acetamido)acetate] to `O=C(O)CN(CCc1ccc(Cl)cc1Cl)C(=O)CC1C(=O)N(CCc2ccc(Cl)cc2Cl)CC(=O)N1CCc1c[nH]c2ccccc12` (stereo not shown) [Ib.3.2, 2-(2-(1-(2-(1H-indol-3-yl)ethyl)-4-(2,4-dichlorophenethyl)-3,6-dioxopiperazin-2-yl)-N-(2,4-dichlorophenethyl)acetamido) acetic acid], the inhibition at 10 µM rises from 29% to 48%.

First: COc1ccc2[nH]cc(CCN3C(=O)CN(CCc4ccc(Cl)cc4Cl)C(=O)C3CC(=O)NCCc3ccc(Cl)cc3Cl)c2c1 (stereo not shown) [Id.5.2, N-(2,4-dichlorophenethyl)-2-(4-(2,4-dichlorophenethyl)-1-(2-(5-methoxy-1H-indol-3-yl)ethyl)-3,6-dioxopiperazin-2-yl)acetamide]
Second: COC(=O)CN(CCc1ccc(Cl)cc1Cl)C(=O)CC1C(=O)N(CCc2ccc(Cl)cc2Cl)CC(=O)N1CCc1c[nH]c2ccc(OC)cc12 (stereo not shown) [Ic.5.2, Methyl 2-(N-(2,4-dichlorophenethyl)-2-(4-(2,4-dichlorophenethyl)-1-(2-(5-methoxy-1H-indol-3-yl)ethyl)-3,6-dioxopiperazin-2-yl)acetamido)acetate]
The inhibition at 10 µM of the first is higher: 40% for the first, 23% for the second.

First: O=C(O)CN(CCc1ccc(Cl)cc1Cl)C(=O)CC1C(=O)N(CCc2ccc(Cl)cc2Cl)CC(=O)N1CCC(c1ccccc1)c1ccccc1 (stereo not shown) [Ib.1.2, 2-(N-(2,4-dichlorophenethyl)-2-(4-(2,4-dichlorophenethyl)-1-(3,3-diphenylpropyl)-3,6-dioxopiperazin-2-yl)acetamido) acetic acid]
Second: NCCCCC(NC(=O)CN(CCc1ccc(Cl)cc1Cl)C(=O)CC1C(=O)N(CCc2ccc(Cl)cc2Cl)CC(=O)N1CCC(c1ccccc1)c1ccccc1)C(N)=O (stereo not shown) [If.1.2, 6-amino-2-(2-(N-(2,4-dichlorophenethyl)-2-(4-(2,4-dichlorophenethyl)-1-(3,3-diphenylpropyl)-3,6-dioxopiperazin-2-yl)acetamido)acetamido)hexanamide]
The inhibition at 10 µM of the first is lower: 72% for the first, 80% for the second.

First: NC(=O)CN(CCc1ccccn1)C(=O)CC1C(=O)N(CCc2ccc(Cl)cc2Cl)CC(=O)N1CCC(c1ccccc1)c1ccccc1 (stereo not shown) [I.1.16, N-(2-amino-2-oxoethyl)-2-(4-(2,4-dichlorophenethyl)-1-(3,3-diphenylpropyl)-3,6-dioxopiperazin-2-yl)-N-(2-(pyridin-2-yl)ethyl)acetamide]
Second: CCC(C)N(CC(N)=O)C(=O)CC1C(=O)N(CCc2ccc(Cl)cc2Cl)CC(=O)N1CCC(c1ccccc1)c1ccccc1 (stereo not shown) [I.1.20, N-(2-amino-2-oxoethyl)-N-(sec-butyl)-2-(4-(2,4-dichlorophenethyl)-1-(3,3-diphenylpropyl)-3,6-dioxopiperazin-2-yl)acetamide]
The inhibition at 10 µM of the first is higher: 46% for the first, 36% for the second.

Compared with `O=C(O)CN(CCc1ccc(Cl)cc1Cl)C(=O)CC1C(=O)N(CCc2ccc(Cl)cc2Cl)CC(=O)N1Cc1ccc(F)cc1` (stereo not shown) [Ib.2.2, 2-(N-(2,4-dichlorophenethyl)-2-(4-(2,4-dichlorophenethyl)-1-(4-fluorobenzyl)-3,6-dioxopiperazin-2-yl)acetamido) acetic acid], `NC(=O)CN(CCc1ccc(Cl)cc1Cl)C(=O)CC1C(=O)N(CCc2ccc(Cl)cc2Cl)CC(=O)N1CCc1ccc(-c2ccccc2)cc1` (stereo not shown) [Ia.6.2, 2-(1-(2-([1,1′-biphenyl]-4-yl)ethyl)-4-(2,4-dichlorophenethyl)-3,6-dioxopiperazin-2-yl)-N-(2-amino-2-oxoethyl)-N-(2,4-dichlorophenethyl)acetamide] is higher in inhibition at 10 µM: 28% for the first, 29% for the second.
